Measured values: patent publication US8883782B2, “Spiro-tetracyclic ring compounds as beta-secretase modulators and methods of use” (Amgen Inc., priority 2010, dated 2014)

What was measured:
[1] = target: Beta Secretase enzyme (BACE) (Homo sapiens, UniProt P56817); assay: In vitro enzymatic BACE FRET (fluorescence resonance energy transfer) assay; type: biochemical; details: average IC50, enzyme assay; read-out: BACE 1 FRET assay
How it was run: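 Fluorescence read after Tris quench (pH raised to neutrality) of a one-hour BACE reaction. Buffer: acetate 0.05 M, pH 4.2, with 100 uM genapol and 10% DMSO final; started by adding 50 nM FRET peptide substrate spanning the cleavage site.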

[2] = system: Aβ40 in conditioned medium of cells stably expressing Amyloid Precursor Protein (APP); assay: In vitro BACE cell-based assay (Aβ40 in conditioned medium, sandwich ELISA); details: Homo sapiens, HEK293, average IC50; read-out: HEK cell assay
How it was run: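 Secreted Aβ40 is captured with pAb40 and detected with biotinylated 6E10, read by europium time-resolved fluorescence. IC50 comes from percent inhibition versus concentration.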

Sequence of Beta Secretase enzyme (BACE) (P56817 46-501, species assumed): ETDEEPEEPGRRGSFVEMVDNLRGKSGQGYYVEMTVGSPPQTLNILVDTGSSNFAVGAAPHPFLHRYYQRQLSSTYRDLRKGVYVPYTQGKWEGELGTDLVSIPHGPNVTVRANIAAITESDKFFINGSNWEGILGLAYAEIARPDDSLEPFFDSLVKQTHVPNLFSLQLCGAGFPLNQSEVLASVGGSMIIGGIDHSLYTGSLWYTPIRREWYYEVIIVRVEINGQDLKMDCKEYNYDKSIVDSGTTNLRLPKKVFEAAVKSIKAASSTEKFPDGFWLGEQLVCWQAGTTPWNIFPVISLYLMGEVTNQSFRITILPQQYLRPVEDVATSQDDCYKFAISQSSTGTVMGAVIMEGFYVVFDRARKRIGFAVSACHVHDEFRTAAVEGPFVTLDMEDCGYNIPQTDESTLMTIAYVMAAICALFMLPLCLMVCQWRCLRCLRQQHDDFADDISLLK

Compound	IC50 [1] [nM]	IC50 [2] [nM]
NC1=N[C@@]2(CO1)c1cc(Oc3cccc(Cl)n3)ccc1Oc1c(F)cc(C3=CCOCC3)cc12 [Example 725, (4S)-7′-((6-chloro-2-pyridinyl)oxy)-2′-(3,6-dihydro-2H-pyran-4-yl)-4′-fluorospiro[1,3-oxazole-4,9′-xanthen]-2-amine]	22.7	1920
CC1(C#Cc2cnc3c(c2)[C@]2(CSC(N)=N2)c2cc(-c4cnccc4F)ccc2O3)COC1 [Example 727, (5S)-7-(4-fluoro-3-pyridinyl)-3-((3-methyl-3-oxetanyl)ethynyl)spiro[chromeno[2,3-b]pyridine-5,4′-[1,3]thiazol]-2′-amine]	4.1	128
NC1=N[C@@]2(CS1)c1cc(-c3cccnc3F)ccc1Oc1ncc(-c3ncccn3)cc12 [Example 728, (5S)-7-(2-fluoro-3-pyridinyl)-3-(2-pyrimidinyl)spiro[chromeno[2,3-b]pyridine-5,4′-[1,3]thiazol]-2′-amine]	3.5	80
NC1=N[C@@]2(CS1)c1cc(-c3cccnc3F)ccc1Oc1ncc(C3CCOCC3)cc12 [Example 729, (5S)-7-(2-fluoro-3-pyridinyl)-3-(tetrahydro-2H-pyran-4-yl)spiro[chromeno[2,3-b]pyridine-5,4′-[1,3]thiazol]-2′-amine]	6.8	43
CC#Cc1cncc(-c2ccc3c(c2)[C@@]2(CSC(N)=N2)c2cc(-c4cncc(C#CC)c4)cnc2O3)c1 [Example 730, (5S)-3,7-bis(5-(1-propyn-1-yl)-3-pyridinyl)spiro[chromeno[2,3-b]pyridine-5,4′-[1,3]thiazol]-2′-amine]	1.8	171
NC1=N[C@@]2(CO1)c1cc(-c3cccnc3F)ccc1Oc1ncc(-c3cccnc3F)cc12 [Example 732, (5S)-3,7-bis(2-fluoro-3-pyridinyl)spiro[chromeno[2,3-b]pyridine-5,4′-[1,3]oxazol]-2′-amine]	2	3
CC1(C#Cc2cc3c(c(F)n2)Oc2ccc(-c4cccnc4F)cc2C32COC(N)=N2)COC1 (stereo not drawn) [Example 733, 1-fluoro-7-(2-fluoro-3-pyridinyl)-3-((3-methyl-3-oxetanyl)ethynyl)spiro[chromeno[2,3-c]pyridine-5,4′-[1,3]oxazol]-2′-amine]	1.1	18
NC1=N[C@@]2(CO1)c1cc(-c3cccnc3F)ccc1Oc1c2cc(Br)nc1F [Example 734, (5S)-3-bromo-1-fluoro-7-(2-fluoro-3-pyridinyl)spiro[chromeno[2,3-c]pyridine-5,4′-[1,3]oxazol]-2′-amine]	7.8	2260
NC1=NC2(CO1)c1cc(-c3cccnc3F)ccc1Oc1c2cc(C#Cc2cccnc2)nc1F (stereo not drawn) [Example 735, 1-fluoro-7-(2-fluoro-3-pyridinyl)-3-(3-pyridinylethynyl)spiro[chromeno[2,3-c]pyridine-5,4′-[1,3]oxazol]-2′-amine]	0.9	131
NC1=N[C@]2(CO1)c1cc(-c3cccnc3F)ccc1Oc1c2cc(Br)nc1F [Example 736, (5R)-3-bromo-1-fluoro-7-(2-fluoro-3-pyridinyl)spiro[chromeno[2,3-c]pyridine-5,4′-[1,3]oxazol]-2′-amine]	2090	≥ 10000
CC1(C#Cc2cc3c(c(F)n2)Oc2ccc(-c4cccnc4F)cc2[C@]32COC(N)=N2)COC1 [Example 737, (5R)-1-fluoro-7-(2-fluoro-3-pyridinyl)-3-((3-methyl-3-oxetanyl)ethynyl)spiro[chromeno[2,3-c]pyridine-5,4′-[1,3]oxazol]-2′-amine]	116	4330
CC1(C#Cc2cc3c(c(F)n2)Oc2ccc(-c4cccnc4F)cc2[C@@]32COC(N)=N2)COC1 [Example 738, (5S)-1-fluoro-7-(2-fluoro-3-pyridinyl)-3-((3-methyl-3-oxetanyl)ethynyl)spiro[chromeno[2,3-c]pyridine-5,4′-[1,3]oxazol]-2′-amine]	0.6	10
CC#Cc1cncc(-c2ccc3c(c2)[C@@]2(COC(N)=N2)c2cc(-c4ccncc4)nc(F)c2O3)c1 [Example 739, (5S)-1-fluoro-7-(5-(1-propyn-1-yl)-3-pyridinyl)-3-(4-pyridinyl)spiro[chromeno[2,3-c]pyridine-5,4′-[1,3]oxazol]-2′-amine]	0.5	5
CC#Cc1cncc(-c2ccc3c(c2)[C@@]2(COC(N)=N2)c2cc(-c4ccnc(C)c4)nc(F)c2O3)c1 [Example 740, (5S)-1-fluoro-3-(2-methyl-4-pyridinyl)-7-(5-(1-propyn-1-yl)-3-pyridinyl)spiro[chromeno[2,3-c]pyridine-5,4′-[1,3]oxazol]-2′-amine]	0.8	8
CC#Cc1cncc(-c2ccc3c(c2)[C@@]2(COC(N)=N2)c2cc(-c4ccc(C)nc4)nc(F)c2O3)c1 [Example 741, (5S)-1-fluoro-3-(6-methyl-3-pyridinyl)-7-(5-(1-propyn-1-yl)-3-pyridinyl)spiro[chromeno[2,3-c]pyridine-5,4′-[1,3]oxazol]-2′-amine]	0.4	4
N#Cc1cccc(-c2ccc3c(c2)[C@@]2(COC(N)=N2)c2cc(C4=CCCOC4)nc(F)c2O3)c1 [Example 742, 3-((5S)-2′-amino-3-(5,6-dihydro-2H-pyran-3-yl)-1-fluorospiro[chromeno[2,3-c]pyridine-5,4′-[1,3]oxazol]-7-yl)benzonitrile]	0.4	8
N#Cc1cccc(-c2ccc3c(c2)[C@@]2(COC(N)=N2)c2cc(C4=CCOCC4)nc(F)c2O3)c1 [Example 743, 3-((5S)-2′-amino-3-(3,6-dihydro-2H-pyran-4-yl)-1-fluorospiro[chromeno[2,3-c]pyridine-5,4′-[1,3]oxazol]-7-yl)benzonitrile]	0.4	6
Cc1cc(-c2cc3c(c(F)n2)Oc2ccc(-c4cccnc4F)cc2[C@@]32COC(N)=N2)ccn1 [Example 744, (5S)-1-fluoro-7-(2-fluoro-3-pyridinyl)-3-(2-methyl-4-pyridinyl)spiro[chromeno[2,3-c]pyridine-5,4′-[1,3]oxazol]-2′-amine]	0.8	12
NC1=N[C@]2(CO1)c1cc(-c3cccnc3F)ccc1Oc1c2cc(C#Cc2cccnc2)nc1F [Example 747, (5R)-1-fluoro-7-(2-fluoro-3-pyridinyl)-3-(3-pyridinylethynyl)spiro[chromeno[2,3-c]pyridine-5,4′-[1,3]oxazol]-2′-amine]	1120	≥ 10000
NC1=N[C@@]2(CO1)c1cc(-c3cccnc3F)ccc1Oc1c2cc(C#Cc2cccnc2)nc1F [Example 748, (5S)-1-fluoro-7-(2-fluoro-3-pyridinyl)-3-(3-pyridinylethynyl)spiro[chromeno[2,3-c]pyridine-5,4′-[1,3]oxazol]-2′-amine]	0.4	74
CC#Cc1cncc(-c2ccc3c(c2)C2(COC(N)=N2)c2cc(C4CCOCC4)nc(F)c2O3)c1 (stereo not drawn) [Example 750, 1-fluoro-7-(5-(1-propyn-1-yl)-3-pyridinyl)-3-(tetrahydro-2H-pyran-4-yl)spiro[chromeno[2,3-c]pyridine-5,4′-[1,3]oxazol]-2′-amine]	0.7	4
